In a compilation of properties of binary mixtures (doi:10.1016/j.molliq.2022.119052) one finds viscosity data, which are given here for three compounds.

This data set in a line: xn = mol fraction of the nth substance listed. The note with it: 100 kPa, x1 = 0.333.

Consider `Cn1cc[nH+]c1.[Cl-]` + OCC(O)CO, for which the viscosity (usually the resistance of a fluid to flow) was 103.1 mPa·s (303.15 K) and 49.1 mPa·s (323.15 K).

For `CC[n+]1ccn(C)c1.[Cl-]` + OCC(O)CO, the viscosity is, setting by setting: (298.15 K) 156.4 mPa·s; (313.15 K) 85.1 mPa·s; (323.15 K) 58.5 mPa·s; (333.15 K) 41.2 mPa·s.

On to `CCn1cc[nH+]c1.[Cl-]` + OCC(O)CO, for which the viscosity is given as 79.9 mPa·s (298.15 K), 45.3 mPa·s (313.15 K), 32 mPa·s (323.15 K) and 23 mPa·s (333.15 K).
